# Reference: paper PMC6479694, “Studies on the Interaction between Poly-Phosphane Gold(I) Complexes and Dihydrofolate Reductase: An Interplay with Nicotinamide Adenine Dinucleotide Cofactor” (International Journal of Molecular Sciences, 2019)
# Values joined by “and” are separate entries in the source; they are usually repeats but may differ in a detail not shown here. Equal entries are not always repeated. Where two headings read alike, the source gives them in different places.
# Tests used:
# DHFR from E. coli [1] = biological target: T1, DHFR from E. coli (Escherichia coli, UniProt P0ABQ4); test: Inhibition of DHFR-catalysed reduction of H2F to H4F, spectrophotometric at 340 nm, Dixon plot; type: biochemical; conditions: pH 7.3, 30 °C, saturating NADPH, H2F 1.5-10 µM, Hepes/methanol
# T1 construct: made in house
# Experimental: The phosphane gold(I) compounds were used to prepare buffered stock solutions at pH = 7.3 at 30 °C for the inhibition tests of DHFR from E coli. In Table 1, the list of the gold(I) compounds used for the tests and the corresponding inhibition constants are reported.
# The inhibition action of the gold phosphane compounds was tested in regards to the reduction of H2F to H4F reaction, catalyzed by DHFR [2]. The inhibition tests were led by analyzing the reciprocal reaction rate upon the addition of Hepes/methanol solutions of gold compounds in different set of tests in the saturated concentration of NADPH. The tests were repeated with different amounts of dihydrofolate (DHF) (1.5 ÷ 10 µM).
# The standard deviations were calculated for a minimum of three determinations. (1) 1/ν=Km/VmaxKi[S]∗[I]+1/Vmax(1+Km/[S])
# The activity of the DHFR was followed by recording the absorbance with a Shimadzu UV-2450 (UV-Vis spectrophotometer). The enzyme assays were made in a quartz cuvette by using similar experimental conditions: DHFR 3-5 nM, NADPH 60–80 μM, and H2F 1.5, 4, and 10 μM. The procedure consisted in the preparation of the following mixtures: 800–971 µL of 50 mM Hepes buffer at pH = 7.3, 20 μL of NADPH, 10 µl of DHFR, and increasing quantities of gold(I) compounds stock solutions in order to achieve higher accuracy in the measurement of the inhibitory effect. After storing the mixture for 5 min at 30 °C, 4–33 µL of H2F was added. The decreasing absorbance at 340 nm, due to the oxidation of NADPH to NADP^+, was detected after adding the H2F, and expressed in U mL^−1 using the equation: U·mL^−1 = Δabs/Δt/11.8 × dilution factor, where 11.8 is the mMolar extinction coefficient when NADPH and H2F are simultaneously present in solution. The Ki values were calculated with the Dixon plot from the second plot obtained computing the slope values against the reciprocal of the H2F concentrations.
# DHFR from E. coli [2] = biological target: T1, DHFR from E. coli; test: Fluorimetric binding assay, quenching of DHFR tryptophan emission (λexc = 280 nm); conditions: for TΔS°: from van't Hoff analysis; for ΔG°: standard free energy equation from ΔH° and TΔS°; for ΔH° / ΔS°: van't Hoff equation from Kd at 25, 10 and −4 °C
# Experimental: The Hepes/methanol solutions of the gold(I) compounds were used for the fluorimetric assays (see materials and methods section) regarding DHFR from E. coli. The emission’s maximum of DHFR was detected at 344 nm upon excitation at 280 nm; by adding additional amounts of the gold complex in Hepes/methanol solutions (ranging among 4 ÷ 50 µM), the quenching of this emission intensity was observed. In Figure 3, spectra showing the effect of ^4L3AuCl on DHFR emission are reported. It is possible to observe the quenching of the Tryptophan’s emission and the corresponding increase of the intrinsic phosphorescence of the gold compound.
# (§1) The fluorimetric analysis was performed using a 1 mL quartz cuvette and a Perkin–Elmer Fluorescence Spectrometer LS 55. For all the analysis we used 5–12 µM solutions of DHFR and increasing concentrations of gold(I) compounds in the 4–60 µM range. For some experiments, saturating concentrations of NADPH (50 µM) were added to the initial solutions of DHFR to observe the affinity variation of the complexes with respect to the DHFR.
# All the spectra were recorded in the range between 250 and 600 nm using an excitation wavelength characteristic of the Tryptophan, equal to 280 nm. For most of the experiments the temperature was kept constant at 25 °C; furthermore, to analyze the thermodynamic aspects of the reactions (via the van’t Hoff equation), quenching spectra of DHFR in presence of the gold(I) complexes were recorded at −4 and 10 °C as well.
# (§2) The fluorimetric data were analyzed using the binding isotherm (Equation (2)), where [Q] is the concentration of the added quenching ligand, F is the measured fluorescence, F0 is the starting fluorescence, Fc is the fluorescence of the fully complexed protein, Kd is the dissociation constant, and n is the Hill coefficient. Indeed, n is a phenomenological parameter, an interaction coefficient, such as when n = 1 the equation describes a complex formation with one site of interaction, when n = 2 binding occurs with a dimer, when 1 < n < 2 a cooperative interaction occurs. (2) F0−F/F−Fc=[Q]^n/(Kd+[Q])^n
# DHFR/NADPH = biological target: T2, DHFR/NADPH (Escherichia coli, UniProt P0ABQ4); test: Fluorimetric binding assay on DHFR in presence of saturating NADPH; conditions: 25 °C, saturating NADPH (50 µM); read-out: Kd ± s.d. (25 °C) in presence of saturating NADPH
# T2 construct: made in house
# Source text: After these preliminary emissive property characterizations, the fluorimetric studies were led in the presence of the enzyme DHFR and the cofactor NADPH [26]. […] Additionally, NADPH is fluorescent, with an absorption maximum at about 340 nm and an emission maximum at about 450 nm. […] Moreover, because NADPH has a maximum of absorption at 340 nm, significant energy transfer from the excited tryptophan of the enzyme to bound NADPH occurs; as a consequence, a new emission at 420–450 nm is then observed. Figure 8 reports the progressive quenching of the DHFR and NADPH emissions by stepwise adding of solution of ^4L3AuCl. Moreover, a slight shift of the typical emission at […] (λexc = 280 nm) is observed.
# as §1, §2
# DHFR from E. coli [3] = biological target: T1, DHFR from E. coli; design: method as in PMID 25567238; conditions: values obtained in a previous work, cited from earlier work
# [4] = UV-visible spectroscopy stability test in Hepes/methanol solution; type: physicochemical; conditions: 11.85 µM, Hepes/methanol 80:20, 30 °C, one hour, every 3 minutes
# Experimental: The preparation of the gold compounds was performed according to methods already published and was based on the substitution of the labile ligand from the gold precursor [AuCl(Me2S)], by mean of a more coordinative ligand, such as the PPh3 or its modified analogs, ^4L and ^2L. Mole ratio with an excess of the phosphane ligand was pursued with the aim to enhance the reaction yield for tris-phosphane compounds. The solids obtained by crystallization were characterized by elemental analysis, ^1H and ^31P NMR, IR, and ESI Mass spectrometry. The stability of the stock solutions upon dilution was checked by recording UV-visible spectra (see Supplementary Material, Figures S1 and S2). The reactants for the ester reaction and ^4L or ^2L ligands were bought from Aldrich and used without any purification. Methanol or methylene chloride solvents were degassed and dried over molecular sieves.
# UV-visible spectroscopy stability tests of compounds 4L3AuCl, 4L2AuCl, and 2L2AuCl on […]
# Acquisitions of the absorptions in the range of 200–700 nm of the tested solutions were led for an hour lapse every 3 minutes in 11.85 µM concentration of 4L3AuCL (figure S1), 4L2AuCl, and 2L2AuCl (figure S2) at 30 °C. The stability was tested in Hepes/methanol 80:20, which are the same conditions used for the inhibition tests.
# Figure S1. UV-visible spectra for 11.85 µM of 4L3AuCl in hepes/methanol
# (1 picture or pasted object on this page, not shown here)
# DHFR = system: DHFR; design: method as in PMID 17920, PMID 12359872; conditions: cited from earlier work
# [5] = 10 °C, without NADPH, read-out: Kd ± s.d. (10 °C) (converted)
# [6] = 25 °C, without NADPH, Hepes/methanol, read-out: Kd ± s.d., T = 25 °C
# [7] = −4 °C, without NADPH, read-out: Kd ± s.d. (−4 °C) (converted)
# [8] = 25 °C, when not specified n = 1
Structure (SMILES),Ki (DHFR from E. coli [1]),Kd (DHFR from E. coli [2]; [5]),Kd (DHFR from E. coli [2]; [6]),TΔS° (DHFR from E. coli [2]),ΔG° (DHFR from E. coli [2]),ΔH° (DHFR from E. coli [2]),ΔS° (DHFR from E. coli [2]),Kd (DHFR from E. coli [2]; [7]),Kd (DHFR/NADPH),Ki (DHFR from E. coli [3]; read-out: Ki),further results
"[Cl][Au]([PH](c1ccccc1)(c1ccccc1)c1ccccc1)[PH](c1ccccc1)(c1ccccc1)c1ccccc1 [L2AuCl, (PPh3)2AuCl]",0.53 ± 0.03 µM,2.47 µM,5.99 ± 0.4 µM,2.5 n. d. * kcal/mol,−7.37 n. d. * kcal/mol,−4.87 n. d.* kcal/mol,8.42 n. d. * cal/mol K,3.83 µM,2.22 ± 0.25 µM,,"Kd (DHFR from E. coli [2]; conditions not stated in the conclusions, read-out: thermodynamic constant for the dissociation of the adduct [DHFR:(PPh3)2AuCl]): ~2 µM"
"O=C(O)c1ccc(P(c2ccccc2)c2ccccc2)cc1 [^4L, 4-(diphenylphosphino)benzoic acid, reference compound]",,,59.6 ± 5.7 µM,,,,,,,,Ki (DHFR from E. coli [3]): No inhibition *
"O=C(O)c1ccc(P(c2ccccc2)c2ccccc2)cc1.O=C(O)c1ccc(P(c2ccccc2)c2ccccc2)cc1.[Cl][Au] [^4L2AuCl, (4COOHPh-Ph2P)2AuCl]",,3.52 µM,4.42 ± 0.56 µM,5.29 ± 0.2 kcal/mol,-7.31 ± 0.28 kcal/mol,-2.02 ± 0.2 kcal/mol,17.76 ± 0.1 cal/mol K,3.06 µM,2.35 ± 0.61 µM,27 µM and 27.8 µM,Stability of the solution (UV-visible spectra 200–700 nm) [4]: no overall changes in solution over
"O=C(O)c1ccccc1P(c1ccccc1)c1ccccc1.O=C(O)c1ccccc1P(c1ccccc1)c1ccccc1.[Cl][Au] [^2L2AuCl, (2COOHPh-Ph2P)2AuCl]",,,10.3 ± 0.65 µM,,,,,,4.73 ± 0.68 µM,2 µM and 2.07 µM,Stability of the solution (UV-visible spectra 200–700 nm) [4]: no overall changes in solution over
"O=C(O)c1ccccc1 [Benzoic acid, reference compound]",,,~4000 µM,,,,,,,,
COC(=O)c1ccc(P(c2ccccc2)c2ccccc2)cc1.COC(=O)c1ccc(P(c2ccccc2)c2ccccc2)cc1.COC(=O)c1ccc(P(c2ccccc2)c2ccccc2)cc1.[Cl][Au] [^4MeL3AuCl],12.7 ± 2.1 µM,7.63 µM,13.4 ± 2.24 µM,2.29 n. d. * kcal/mol,−6.64 n. d. * kcal/mol,−4.35 n. d. * kcal/mol,7.69 n. d. * cal/mol K,21.2 µM,4.55 ± 1.04 µM,,
"[Cl][Au].c1ccc(P(c2ccccc2)c2ccccc2)cc1 [LAuCl, PPh3AuCl]",,,,,,,,,,1.21 ± 0.2 µM,
"O=C(O)c1ccc(P(c2ccccc2)c2ccccc2)cc1.[Cl][Au] [^4LAuCl, (4COOHPh-Ph2P)AuCl]",,,,,,,,,,2.25 ± 0.62 µM,
"O=C(O)c1ccccc1P(c1ccccc1)c1ccccc1.O=C(O)c1ccccc1P(c1ccccc1)c1ccccc1.O=C(O)c1ccccc1P(c1ccccc1)c1ccccc1.[Cl][Au] [^2L3AuCl, [tris(2-benzoate-diphenylphosphanyl)-gold(I)chloride]]",21.3 ± 3.8 µM,7.12 µM,10.5 ± 1.07 µM,2.86 ± 0.1 kcal/mol,-6.8 ± 0.14 kcal/mol,-3.94 ± 0.1 kcal/mol,9.58 ± 0.08 cal/mol K,5.11 µM,7.32 ± 2.46 µM,,n = Hill coefficient (DHFR from E. coli [2]; 10 °C): 1.41 ± 0.048; n = Hill coefficient (DHFR from E. coli [2]; [8]): 1.23 ± 0.082
"O=C(O)c1ccccc1P(c1ccccc1)c1ccccc1.[Cl][Au] [^2LAuCl, (2COOHPh-Ph2P)AuCl]",,,,,,,,,,1.1 ± 0.3 µM,
CN(Cc1cnc2nc(N)nc(N)c2n1)c1ccc(C(=O)N[C@@H](CCC(=O)O)C(=O)O)cc1 [Methotrexate],,,,,,,,,,,stronger bond to DHFR than DHF (factor) (DHFR): 10^3
"O=C(O)c1ccc(P(c2ccccc2)c2ccccc2)cc1.O=C(O)c1ccc(P(c2ccccc2)c2ccccc2)cc1.O=C(O)c1ccc(P(c2ccccc2)c2ccccc2)cc1.O=S(=O)([O][Au])C(F)(F)F [^4L3AuTfl, [tris(4-benzoate-diphenylphosphanyl)-gold(I)triflate]]",6.33 ± 0.7 µM,,21.4 ± 3.85 µM,1.17 ± 0.9 kcal/mol,,-5.32 ± 3.2 kcal/mol,3.92 ± 8.8 cal/mol K,8.08 µM,,,
"O=C(O)c1ccccc1P(c1ccccc1)c1ccccc1 [^2L, 2-(diphenylphosphine) benzoic acid, reference compound]",,,,,,,,,,,Ki (DHFR from E. coli [3]): No inhibition *
"O=C(O)c1ccc(P(c2ccccc2)c2ccccc2)cc1.O=C(O)c1ccc(P(c2ccccc2)c2ccccc2)cc1.O=C(O)c1ccc(P(c2ccccc2)c2ccccc2)cc1.[Cl][Au] [^4L3AuCl, [tris(4-benzoate-diphenylphosphanyl)-gold(I)chloride]]",4.6 ± 0.5 µM,3.32 µM,3.84 ± 0.29 µM,2.19 ± 0.1 kcal/mol,-7.23 ± 0.12 kcal/mol,-5.04 ± 0.08 kcal/mol,7.34 ± 0.005 cal/mol K,2 µM,5.05 ± 2.7 µM,,n = Hill coefficient (DHFR from E. coli [2]; [8]): 1.73; Stability of the solution (UV-visible spectra 200–700 nm) [4]: no overall changes in solution over
"c1ccc(P(c2ccccc2)c2ccccc2)cc1 [L, PPh3, reference compound]",,,,,,,,,,6.16 ± 0.77 µM,
